“Also recorded” adds a separate entry of the source.
Legend:
[1] = Franz Diffusion Cell, CBD flux from monolithic adhesive patch through human cadaver skin; format: in vitro ADME; conditions: monolithic patches: Vistanex LM 5% or 10% CBD, DuroTak 87-2516 10% CBD, BIO PSA 7-4302 5% CBD (FIG. 7)
Method: Formulations of monolithic patches were prepared by solubilizing CBD in different adhesives and CBD transdermal flux was performed through human cadaver skin using Franz Diffusion Cell method. We found the highest transdermal flux of CBD from a formulation that comprises PIB adhesive and 10% CBD.
A monolithic transdermal device 40 is constructed using a matrix 44 of pure CBD and three different adhesives. A first device 40 includes a PE/PET backing and a matrix 44 comprising 95 percent Vistanex) LM polyisobutylene adhesive by weight of matrix 44 mixed with 5 percent substantially pure CBD by weight of matrix 44. A second device is similarly constructed, but the amount of CBD in the matrix 44 is 10 percent by weight of the matrix 44, and the amount of Vistanex LM is 90 percent by weight of the matrix 44. A third patch is constructed using a DuroTak 87-2516 adhesive in an amount of 90 percent by weight of matrix 44 and 10 percent CBD by weight of matrix 44, and a fourth patch is constructed using a BIO PSA 7-4302 adhesive in an amount of 95 percent by weight of matrix 44 and 5 percent CBD by weight of matrix 44.

[2] = Franz Diffusion Cell, CBD flux from reservoir transdermal device through human cadaver epidermis; format: in vitro ADME
Method: The effects of using a hydrophobic, porous membrane versus a hydrophilic, porous membrane (such as membrane 24) in reservoir transdermal device 20 are studied in this example. A mixture is formed by dissolving CBD powder in ethanol to yield a solution comprising 10 percent by weight CBD and 90 percent by weight ethanol. The backing 22 is an occlusive backing film (PE/PET from 3M). Hydroxy ethyl cellulose is added to the solution to yield a thixotropic preparation 27. A volume of 300 μL of the preparation is placed in the reservoir 26.
The skin adhesive 30 is a BIO PSA 7-4301 adhesive coated to a thickness of 15 g/m^2 on side 36 of membrane 24. An overlay adhesive patch is placed over the reservoir which forms an island in the middle. The overlay assures adhesion of the reservoir to the skin. The device 20 is contacted with a human cadaver epidermis, and diffusion through the epidermis is measured using the Franz Diffusion Cell method.
In a first run, membrane 24 is a Lydall® Evopor™ 5E02A, hydrophilic, microporous membrane (of 0.2 μm pore size). In a second run, the device 20 is constructed similarly, but membrane 24 is a hydrophobic Lydall® Solupor™ 7P03A porous membrane.
The reservoir device 20 of Example 1 is used, but instead of using ethanol alone as the liquid carrier, a mixture of ethanol and water is used wherein the ethanol comprises 70 percent by weight of the ethanol/water mixture, and water comprises 30 percent by weight of the ethanol/water mixture. The amount of CBD by weight of the combination of CBD and ethanol/water is 5 percent, and the amount of ethanol/water is 91.5 percent. The gelling agent is hydroxyethylcellulose, which is present in an amount of about 3.5% by weight of the preparation 27. […]
The device 20 is contacted with a human cadaver epidermis, and diffusion through the epidermis is measured using the Franz Diffusion Cell method. In a first run, the hydrophilic, porous membrane 24 of Example 1 is used. In a second run, the membrane 24 is omitted so that CBD diffuses directly through the skin adhesive 30.
This example is conducted using three reservoir transdermal devices such as those of Example 1, with each having the hydrophilic, porous membrane described therein. In each case, the preparation includes a mixture of CBD and a liquid carrier with ten (10) percent CBD by weight of the CBD/liquid carrier mixture. Three runs are conducted, each with a device that includes a different liquid carrier in its preparation 27: 1, 2 propylene glycol, PEG-300, and oleic acid. Diffusion through a human cadaver epidermis is measured using the Franz Diffusion Method.
This example is similar to Example 3, except that an ethanol carrier is also tested. As stated above, FIG. 6 is a graph depicting the cumulative flux (μg/cm^2) of CBD through a human cadaver epidermis over a six hour period from solutions comprising ten (10) percent by weight CBD and 90 percent by weight of one of four liquid carriers.

[3] = 10% CBD / 90% liquid carrier, six hour period (FIG. 6)

C=C(C)[C@@H]1CCC(C)=C[C@H]1c1c(O)cc(CCCCC)cc1O [CBD, Cannabidiol]
transdermal flux of CBD, PIB (Vistanex LM) adhesive / 10% CBD relative to the other monolithic formulations [1]: superior; also recorded: highest | permeability of CBD through the skin, with versus without membrane 24 ([2]; 5% CBD in ethanol/water 70/30, hydrophilic porous membrane used or omitted (FIG. 4)): the same | cumulative flux of CBD, hydrophilic membrane device versus hydrophobic membrane device ([2]; 10% CBD / 90% ethanol, hydrophilic Evopor 5E02A membrane, after about 9 hours (FIG. 3)): significantly exceeds | rate of transfer of CBD through the skin, oleic acid versus 1,2 propylene glycol or PEG-300 ([2]; 10% CBD / 90% liquid carrier, hydrophilic membrane, six hour period (FIG. 5)): significantly better | transfer of CBD through the skin, ethanol relative to 1,2 propylene glycol and PEG-300 [2, 3]: superior | transfer of CBD through the skin, oleic acid relative to ethanol, 1,2 propylene glycol and PEG-300 [2, 3]: superior | expected daily dose, reservoir device relative to monolithic patch of the same skin contact area ([2]; 20 cm^2 skin contact area): six times higher | cumulative flux of cannabidiol (CBD) ([2]; reservoir device, 5% by weight CBD and 70% by weight ethanol liquid carrier, at 12 hours): 110 micrograms/cm^2 | cumulative flux of cannabidiol (CBD) ([2]; reservoir device, 5% by weight CBD and 70% by weight ethanol liquid carrier, at 24 hours): 300 micrograms/cm^2 | cumulative flux of CBD, asymptotic value ([2]; reservoir device, 10% CBD / 90% ethanol, hydrophobic Solupor 7P03A porous membrane (FIG. 3)): about 300 μg/cm^2 | cumulative flux of cannabidiol (CBD) ([2]; reservoir device, 10% by weight CBD and 90% by weight ethanol liquid carrier, hydrophilic porous membrane, at 7 hours): 150 micrograms/cm^2 | cumulative flux of cannabidiol (CBD) ([2]; reservoir device, 10% by weight CBD and 90% by weight ethanol liquid carrier, hydrophilic porous membrane, at 17 hours): 700 micrograms/cm^2 | cumulative flux of cannabidiol (CBD) ([2]; reservoir device, 10% by weight CBD and 90% by weight oleic acid, over six hours): 180 micrograms/cm^2 | cumulative flux of cannabidiol (CBD) ([2]; reservoir device, ethanol liquid carrier, over 6 hours): 70 micrograms/cm^2 | transdermal delivery of CBD from saturated ethanol solution versus monolithic patch ([2]; reservoir patch formulation): significantly higher

From patent US10799545B2, “Transdermal delivery of cannabidiol with other active moieties including cannabinoids” (LIFE TECH GLOBAL, LLC, priority 2016, dated 2020)
